Laboratory results taken from patent US8263601B2, “Deuterium substituted xanthine derivatives” (CoNCERT Pharmaceuticals, Inc., priority 2009, dated 2012).
Like-named read-outs stand apart in the source and are kept apart here. One block for each molecule: values may come before it.

How the values were obtained:
[1] = design: species or system male beagle dogs; details: male, beagle, dog, in vivo, po
Procedure: This study was similar to those described in Examples 34a and 34b, except that Compound 413 was evaluated. Four male beagle dogs were orally dosed by gavage with a mixture containing 2 mg/mL each of pentoxifylline and Compound 413 in saline. Blood samples were taken as in Example 34b.

[2] = design: species or system beagle dogs; details: dog, in vivo, po
Procedure: Example 34a was repeated with additional monitoring of the pentoxifylline and Compound 409 metabolites. In this experiment Compound 409 and pentoxifylline were dissolved separately in saline to a concentration of 4.4 and 4 mg/mL respectively. A 1:1 (v/v) mixture of the two solutions was prepared to yield a solution having a final concentration of 2.2 mg/mL of Compound 409 and 2 mg/mL pentoxifylline. Post-dosing data analysis included adjustments to account for the 10% difference in dosing concentration between compound 409 and pentoxifylline.
Four beagle dogs (2-3 years of age, and weighed 5 to 8 kg) were fasted overnight and then orally dosed via gavage with 2.75 mg/kg Compound 409 and 2.5 mg/kg pentoxifylline using the mixture described above. Blood samples (approximately 1 mL) were collected via femoral vein at 0 min (pre-dose), 5 min, 15 min, 30 min, 45 min, 1 hr, 1.5 hr, 2 hr, 3 hr, 4 hr, and 6 hr post-dose. Blood was stored on ice prior to centrifugation to obtain plasma samples. Centrifugation took place within 15 minutes of blood collection to harvest plasma (maximum volume). The plasma was decanted immediately and frozen/stored at −20° C. until analysis.
Plasma samples were analyzed by LC-MS/MS for the presence of the administered compound and its corresponding M1 metabolite:
The results from one of the four dogs (Dog H, FIG. 1b) were inconsistent with that of the other three. […] It was concluded that this dog was most likely improperly gavaged and that the compounds were probably administered through the trachea, rather than into the GI tract as would have been desired. Accordingly, the data from this dog was excluded from the analyses.

in vivo = test: in vivo; design: species or system male beagle dogs; details: male, beagle, dog, po
Procedure: Metabolism of the title compounds were studied following oral administration to male beagle dogs. Blood samples were removed from dosed dogs at various time points and plasma isolated therefrom. The plasma samples were used for the determination of plasma drug levels by LC-MS/MS (liquid chromatography with tandem mass spectrometry) for estimating pharmacokinetic parameters.
Compound 409 and pentoxifylline were dissolved separately in saline to a concentration of 4 mg/mL. A 1:1 (v/v) mixture of the two solutions was prepared to yield a solution having a final concentration of 2 mg/mL of both Compound 409 and pentoxifylline.
Two male beagle dogs were fasted overnight and then orally dosed via gavage with 2.5 mg/kg of Compound 409 and pentoxifylline using the mixture described above. Blood samples (1.5-2 mL) were collected via the femoral vein at 0 min (pre-dose), 15 min, 30 min, 45 min, 1 hr, 1.5 hr, 2 hr, 3 hr, 4 hr, 6 hr, 8 hr, 10 hr, 12 hr, 16 hr and 24 hr post-dose. Blood was stored on ice prior to centrifugation to obtain plasma samples. Centrifugation took place within 1 hour of blood collection to harvest plasma (maximum volume). The plasma was decanted immediately and frozen/stored at −70° C. until analysis.

[3] = Compound stability in human liver microsomes (Example 36); type: in vitro ADME; details: human liver microsomes 2.0 mg/mL, 5 μM, NADPH, 30 minutes, FIG. 5 columns A and B
Procedure: Example 36 is similar to Example 35 in design, except that human liver microsomes were used instead of rat whole blood to study the metabolism of the compounds.
Human liver microsomes (20 mg/mL) were obtained from Xenotech, LLC (Lenexa, Kans.). β-nicotinamide adenine dinucleotide phosphate, reduced form (NADPH), magnesium chloride (MgCl2), and dimethyl sulfoxide (DMSO) were purchased from Sigma-Aldrich.
Stock solutions containing 7.5 mM of test compounds (pentoxifylline, (S)-M1 metabolite, (R)-M1 metabolite, Compound 409, Compound 435(S), and Compound 435(R)) were prepared in DMSO. The 7.5-mM stock solutions were diluted to 250 μM in acetonitrile (ACN). The human liver microsomes were diluted to 2.5 mg/mL in 0.1 M potassium phosphate buffer, pH 7.4, containing 3 mM MgCl2. The diluted microsomes were added to wells of a 96-well deep-well polypropylene plate in triplicate. 10 μL of the 250 μM test compound was added to the microsomes and the mixture was pre-warmed to 37° C. for 10 minutes. Reactions were initiated by addition of pre-warmed NADPH solution. The final reaction volume was 0.5 mL and contained 2.0 mg/mL human liver microsomes, 5 μM test compound, and 2 mM NADPH in 0.1M potassium phosphate buffer, pH 7.4, and 3 mM MgCl2. The reaction mixtures were incubated at 37° C., and 50-μL aliquots were removed at 0, 5, 10, 20, and 30 minutes and added to shallow-well 96-well plates which contained 50 μL of ice-cold acetonitrile with internal standard to stop the reactions. The plates were stored at 4° C. for 20 minutes after which 100 μL of water was added to the wells of the plate before centrifugation to pellet precipitated proteins. Supernatants were transferred to another 96-well plate and analyzed for the amount of the administered compound and its specific metabolite (listed in Table 11 above) by LC-MS/MS using an Applied Bio-systems API 4000 mass spectrometer.
The results of this study are depicted in FIGS. 4 and 5. […]

[4] = Stability of compounds in rat whole blood (Example 35); type: in vitro ADME; details: 5 μM, 37° C.; for Keto-compound (pentoxifylline or Compound 409) formed from M-1 alcohol: 2 hours, FIG. 3
Procedure: This study was performed to evaluate the stability of the title compounds in rat whole blood. Because the ketone (or keto-compound; either pentoxifylline or 409) and its corresponding M-1 alcohol metabolite interconvert, levels of these components were measured after either the keto-compound was added to the blood or the M-1 was added. In other words, in some tests the keto-compound was the starting test compound and in other tests an M-1 metabolite was the starting test compound.
Fresh rat whole blood was obtained from ViviSource Laboratories, Waltham, Mass. Stock solutions (7.5 millimolar (mM)) of test compounds were prepared in dimethyl sulfoxide (DMSO). The 7.5 mM stock solutions were diluted to 500 micromolar (μM) in acetonitrile (ACN). To 990 microliters (μL) of blood pre-warmed to 37° C. for 7 minutes was added 10 μl, of 500 μM test compound to a final concentration of 5 μM. The test compounds were pentoxifylline, (S)-M1 metabolite of pentoxifylline, (R)-M1 metabolite of pentoxifylline, Compound 409, Compound 435(S), and Compound 435(R). The latter two test compounds are deuterated (S)-M1 and (R)-M1 metabolites, respectively, of Compound 409. The reaction mixture was incubated at 37° C. Aliquots (50 μL) were removed at 0 min, 5 min, 15 min, 30 min, 1 hour and 2 hours following the addition of test compound and added to 96-well plates containing 150 μL of ice cold acetonitrile with an internal standard to stop the reaction. The plates were stored at −20° C. for 20 minutes after which 100 μL of 50% acetonitrile/water was added to the wells of the plate prior to centrifugation to pellet precipitated proteins. A 200-μL aliquot of each supernatant was transferred to another 96-well plate and analyzed by LC-MS/MS using an Applied Bio-systems API 4000 mass spectrometer for amounts of the administered compound and its specific metabolite listed in Table 11 below.
The results of this study are depicted in FIGS. 2 and 3.

- % Difference in Ave. AUC (deuterated vs nondeuterated species) [1]: +74%
- % Difference in Ave. Cmax (deuterated vs nondeuterated species) [1]: +47%
SMILES: [2H]c1nc2c(c(=O)n(CCCC([2H])([2H])C(=O)C([2H])([2H])[2H])c(=O)n2C([2H])([2H])[2H])n1C([2H])([2H])[2H] [Compound 413, 8-d1-3,7-Di(methyl-d3)-1-(4,4,6,6,6-d5-5-oxohexyl)-1H-purine-2,6(3H,7H)-dione]

- % Difference in Ave. AUC (deuterated vs nondeuterated species) ([2]; beagle): +97%
- % Difference in Ave. Cmax (deuterated vs nondeuterated species) ([2]; beagle): +80%
- % Difference in Ave. AUC (deuterated vs nondeuterated species) (in vivo): +80%
- % Difference in Ave. Cmax (deuterated vs nondeuterated species) (in vivo): +57%
- AUC (in vivo; 2.5 mg/kg): 811 ng·h/mL
- Cmax (in vivo; 2.5 mg/kg): 1230 ng/mL
SMILES: [2H]c1nc2c(c(=O)n(CCCC([2H])([2H])C(=O)C([2H])([2H])[2H])c(=O)n2C)n1C([2H])([2H])[2H] [Compound 409, 8-d1-3-methyl-7-(methyl-d3)-1-(6-d3-4-d2-5-oxohexyl)-1H-purine-2,6(3H,7H)-dione]
- Clearance from the plasma compared to pentoxifylline [2]: more slowly cleared
- Amount of (S)-M1 type metabolite (Compound 419(S)) formed from keto-compound, compared to (S)-M1 formed from pentoxifylline [3]: similar
- Amount of (S)-M1 type metabolite (Compound 419(S)) formed from keto-compound, compared to (S)-M1 formed from pentoxifylline ([4]; approximately 2 hours, FIG. 3 columns A and B): similar

SMILES: C[C@@H](O)CCCCn1c(=O)c2c(ncn2C)n(C)c1=O [(R)-M1, reference compound]
- Keto-compound (pentoxifylline or Compound 409) formed from M-1 alcohol [4]: No metabolism of (R)-M1 to pentoxifylline was detected

SMILES: [2H]c1nc2c(c(=O)n(CCCC([2H])([2H])C(O)C([2H])([2H])[2H])c(=O)n2C)n1C([2H])([2H])[2H] (racemic) [Compound 419, (±)-8-d1-1-(4,4,6,6,6-d5-5-Hydroxyhexyl)-3-methyl-7-(methyl-d3)-1H-purine-2,6(3H,7H)-dione]
- Overall systemic exposure to M1 metabolite compared to M1 following dosing of pentoxifylline [2]: greater

SMILES: [2H]c1nc2c(c(=O)n(CCCC([2H])([2H])[C@]([2H])(O)C([2H])([2H])[2H])c(=O)n2C)n1C([2H])([2H])[2H] [Compound 435(R), (R)-8-d1-1-(4,4,5,6,6,6-d6-5-Hydroxyhexyl)-3-methyl-7-(methyl-d3)-1H-purine-2,6(3H,7H)-dione]
- Keto-compound (pentoxifylline or Compound 409) formed from M-1 alcohol [4]: not detected
